Common to all, as to format: cell-based
Assay [1] concerns MDA-MB-231 cells. Nature of the assay: Cell viability by neutral red assay, MDA-MB-231. The note with it: for effect on cell viability: single agent, up to 6 days, Thalidomide 0.01-100 μM, CC-4047 and lenalidomide 0.001-10 μM, FIG. 6A. On the procedure: (§1) Cells were seeded in 24 wells plates at a density of 10^4 cells per well and allowed to adhere for 24 hours. […] The drug was renewed every 2 days. Cell viability was then determined by neutral red assay, measuring absorbance at 550 nm.
(§2) After 6 days treatment, cells were seeded into 24 well plates at a density of 1×10^4 cells/wells. After 24 h, cells were treated with reagents or vehicle for up to six days. At the end of the incubation period, medium was removed and cells were incubated with neutral red solution (40 μg/ml in phenol red and serum free DMEM) for 2 h at 37° C. After removal of the neutral red solution, wells were rinsed once with 1 ml 4% formal saline containing 0.5% CaCl2. Plates were inverted on paper towel to drain and 200 μl of elution fluid (1% acetic acid in 50% ethanol) was added. Following incubation at room temperature for 30 min with gentle shaking, absorbance at 550 nm was determined
(§3) To accomplish this, cells were treated for up to 6 days with different concentrations of a BCL-2 inhibitor, ABT-263 ([…]). Non-treated cells were used as a control. After 6 days of treatment, cell viability was measured by neutral red assay (FIG. 16). In the three cell lines, BCL-2 inhibition leads to cell death. The IC50 is almost equivalent in all cell lines (1 μM+/−0.2 μM).
(§4) More particularly, FIG. 16 illustrates the effects of BCL-2 inhibition on MCF-7VD^R and HBL-100 viability. MDA-MB-231, MCF-7/VD^R and HBL-100 cells were treated for up to 6 days with different concentrations of ABT-263 (0.2 up to 20 μM). Non-treated cells were used as a control. After 6 days of treatment, cell viability was measured by neutral red assay. Results are mean of three independent experiments (each made in quadruplicate).

Another assay deals with MCF-7/VD^R cells. Nature of the assay: Cell viability by neutral red assay, MCF-7/VD^R. The note with it: Homo sapiens, MCF7, 144 h; ABT-263, 6 days, FIG. 16; read-out: IC50 (cell viability / killing).
Excerpt: (§5) Non-treated cells were used as a control.
as §5

The subject of a further assay is HBL-100 cells. Nature of the assay: Cell viability by neutral red assay, HBL-100. As to conditions: Homo sapiens, HBL-100, 144 h; ABT-263, 6 days, FIG. 16; read-out: IC50 (cell viability / killing). Here is the method: as §2
In order to validate the previous results obtained in MDA-MB-231 cells, two other vitamin D resistant cell lines MCF-7/VD^R and HBL-100 cells, were investigated. First the effect of lenalidomide on these cells lines were investigated. To this end, cells were treated for up to 6 days with different concentrations of lenalidomide (0 μM up to 10 μM). Cell viability was measured by neutal red dye assay (FIG. 13).
More particularly, FIG. 13 illustrates the effects of lenalidomide treatment on MCF-7/VDR and HBL-100 viability. MCF-7/VDR and HBL-100 cells were treated for up to 6 days with different concentrations of lenalidomide (0 μM up to 10 μM). Cell viability was measured by neutral red dye assay. Results are mean of three independent experiments (each made in quadruplicate).
Cell viability was measured by neutral red dye assay (FIG. 14).
More particularly, FIG. 14 illustrates the effects of lenalidomide/1, 25-D3 co-treatment on MCF-7/VDR and HBL-100 viability. MCF-7/VDR and HBL-100 cells were treated for up to 6 days with different concentrations of lenalidomide (0.01 μM up to 1 μM) alone or in combination with different concentrations of 1, 25-D3 (0 for up to 1000 nM). Cell viability was measured by neutral red dye assay. Results are mean of three independent experiments (each made in quadruplicate).
as §3, §4

Assay [2] relates to MCF-12A cells. Nature of the assay: Cell viability by neutral red assay, MCF-12A. As to conditions: single agent, up to 6 days, Thalidomide 0.01-100 μM, CC-4047 and lenalidomide 0.001-10 μM, FIG. 6A. Here is the method: as §1, §2
Assay [3] relates to MCF-7 cells. Kind of assay: Cell viability by neutral red assay, MCF-7. As to conditions: single agent, up to 6 days, Thalidomide 0.01-100 μM, CC-4047 and lenalidomide 0.001-10 μM, FIG. 6A. Here is the method: as §1, §2
Assay [4] relates to MCF-12A cells. Nature of the assay: Cell growth by Sulphorhodamine B (SRB) assay, MCF-12A. As to conditions: single agent, up to 6 days, Thalidomide 0.01-100 μM, CC-4047 and lenalidomide 0.001-10 μM, FIG. 6B. Here is the method:
(§6) Cells were seeded in 24 wells plates at a density of 10^4 cells per well and allowed to adhere for 24 hours. […] Each treatment was carried out for up to 7 days, but renewed every 2 days. Cell growth was then determined by Sulphorhodamine B (SRB) assay, measuring absorbance at 550 nm.
(§7) After 6 days treatment, cells were seeded in 24 well plates at a density of 1×10^4 cells/well. After 24 h cells were treated with reagents or vehicle for up to six days. Cells were treated for up to 6 days with log doses of Thalidomide (0.1 μM up to 100 μM), pomalidomide and lenalidomide (0 μM up to 10 μM). At the end of each experiment, cells were fixed to the bottom of the well by addition of ice-cold 50% w/v trichloroacetic acid (TCA) to give a final concentration of 10% TCA. Plates were incubated at 4° C. for 30 minutes and then washed with distilled water. Plates were allowed to air-dry at room temperature before staining with 0.4% w/v SRB in 1% v/v acetic acid and incubated for 15 minutes on a shaker. The plates were then extensively washed with 1% acetic acid to remove unbound dye and were again allowed to air-dry at room temperature. Incorporated dye was solubilised with 200 μl […] Tris base. 100 μl aliquots were transferred to a 96 well plate and absorbance at 550 nm was determined

Assay [5] relates to MCF-7 cells. Nature of the assay: Cell growth by Sulphorhodamine B (SRB) assay, MCF-7. The note with it: single agent, up to 6 days, Thalidomide 0.01-100 μM, CC-4047 and lenalidomide 0.001-10 μM, FIG. 6B. Here is the method: as §6, §7
For assay [6], the system named is MDA-MB-231 cells. Kind of assay: Cell growth by Sulphorhodamine B (SRB) assay, MDA-MB-231. Here is the method: Cells were seeded in 24 wells plates at a density of 10^4 cells per well and allowed to adhere for 24 hours. To determine the combination effects of the drugs, cells were treated with 100 nM 1,25 D3 and 10 nM 1-oxo-2-(2,6-dioxopiperidin-3-yl)-4-aminoisoindoline or 1,3-dioxo-2-(2,6-dioxopiperidin-3-3-yl)-4-aminoisoindoline. Each treatment was carried out for up to 7 days, but renewed every 2 days. Cell growth was then determined by Sulphorhodamine B (SRB) assay, measuring absorbance at 550 nm.
Cells were seeded in 24 wells plates at a density of 10^4 cells per wekk and allowed to adhere for 24 hours. To determine the combination effects of the drugs, cells were treated with 100 nM 1,25 D3 and varying doses of 1-oxo-2-(2,6-dioxopiperidin-3-yl)-4-aminoisoindoline or 1,3-dioxo-2-(2,6-dioxopiperidin-3-yl)-4-aminoisoindoline. Each treatment was carried out for up to 7 days, but renewed every 2 days. Cell growth was then determined by Sulphorhodamine B (SRB) assay, measuring absorbance at 550 nm.
as §7
(In SRB staining, fixed cells bind dye roughly in proportion to their protein.)

These results are taken from patent US8841325B2, “Immunomodulatory compounds for the restoration of vitamin D sensitivity in vitamin D resistant tumor cells” (Celgene Corporation, priority 2009, dated 2014).

In the case of `CC1(C)CCC(c2ccc(Cl)cc2)=C(CN2CCN(c3ccc(C(=O)NS(=O)(=O)c4ccc(N[C@H](CCN5CCOCC5)CSc5ccccc5)c(S(=O)(=O)C(F)(F)F)c4)cc3)CC2)C1` [ABT-263], the IC50 in the assay on MDA-MB-231 cells [1] (Homo sapiens, MDA-MB-231, 144 h, ABT-263, 6 days, FIG. 16, read-out: IC50 (cell viability / killing)) stood at 1 µM; in the assay on MCF-7/VD^R cells, 1 µM; with HBL-100 cells, 1 µM.
As to `Nc1cccc2c1C(=O)N(C1CCC(=O)NC1=O)C2=O` (stereo not shown) [Pomalidomide, 1,3-dioxo-2-(2,6-dioxopiperidin-3-yl)-4-aminoisoindoline], the “effect on cell viability” value in the assay on MCF-12A cells [2], in the assay on MCF-7 cells [3] and in the assay with MDA-MB-231 cells [1] was “do not Affect” in each case. Also, the “effect on cell growth” value was “do not Affect” in the assay with MCF-12A cells [4]; “do not Affect” with MCF-7 cells [5]; “no effects” in the assay on MDA-MB-231 cells [6] (single agent, 0.001-10 μM, up to 6 days). Besides, the “minimal concentration giving statistically significant inhibition of growth” value in the assay with MDA-MB-231 cells [6] (in the presence of 100 nM 1,25 D3, up to 7 days, FIG. 3) was found to be 0.1 µM.
As usually defined, the inhibition is the change of the read-out against control, counted positive when it falls. `O=C1CCC(N2C(=O)c3ccccc3C2=O)C(=O)N1` (stereo not shown) [Thalidomide]: the “effect on cell viability” value in the assay with MCF-12A cells [2], in the assay with MCF-7 cells [3] and in the assay on MDA-MB-231 cells [1] was “do not Affect” each time. Besides, the “effect on cell growth” value in the assay with MCF-12A cells [4] and in the assay on MCF-7 cells [5] was “do not Affect” each time. Besides, the inhibition at 100 µM in the assay with MDA-MB-231 cells [6] (Homo sapiens, MDA-MB-231, 144 h, single agent, 100 μM Thalidomide (highest dose), up to 6 days) is 20%.
